Like-named read-outs stand apart in the source and are kept apart here.
Key:
[1] = biological target: recombinant human androgen receptor (AR) protein (Homo sapiens, UniProt P10275); type: binding
androgen receptor = biological target: T1, androgen receptor (Homo sapiens, UniProt P10275); test: cell-based; type: cell-based; settings: for Emax: HEK-293T, read-out: % relative efficacy
T1 construct: expressed in transfected cells; host or cells: HEK293T (ATCC, CRL-3216)
Protocol: Androgen Receptor Reporter Gene Assay (AR Reporter Gene Assay)
This experiment was performed to investigate the agonistic activity of the compounds of the present disclosure on androgen receptors.
The EC50 was calculated according to the following formula: […]
X represents the logarithm of the activator concentration; Y represents the […]; Bottom represents the lowest plateau value of the curve; Top represents the highest plateau value of the curve; and Hillslope represents the slope of the curve.
The % relative effectiveness was calculated according to the following formula: […]
Activatedcmpd: mean activation value of the compound signal across the entire plate.
ActivatedAve_PC: mean activation value of the positive control across the entire plate.
ActivatedAve_VC: mean activation value of the vehicle control across the entire plate.

[2] = for metabolites detected after administration: high-resolution mass spectrometry; for metabolites detected after administration / concentration of metabolites in serum and brain (in words): metabolite = compound of Example 3; for concentration of the compound in serum and brain (in words): after administration
Protocol: • (1) The experimental protocol was referenced and complied with the National Institutes of Health Guide for the Care and Use of Laboratory Animals, and was approved by the Laboratory Animal Welfare and Ethics Committee of the Chinese Institute for Brain Research (CIBR). • (2) Wild-type male C57BL/6J mice, aged 6-7 weeks and weighing 18-22 grams, were used. The mice were housed in a constant-temperature incubator with a 12-hour light-dark cycle and free access to food and water. Food was withheld one day before the experiment, while free access to water was permitted. The mice were injected intraperitoneally with the test compound at a dose of 20 mg/kg. […] After sampling, the samples were immediately centrifuged at low speed to remove blood cells, and hemolysis was minimized as much as possible. After collection, the serum was sent to the mass spectrometry center for pretreatment. • (4) The brain tissue was rapidly dissected after treatment and frozen in liquid nitrogen for later use.
The sample (100 μL) was warmed to the room temperature, acetonitrile: methanol (500 μL, v/v=50:50) was added to the solution, and the sample was vortexed for 20 s. The sample was centrifuged at 5,000 g for 15 min at 4° C. Subsequently, 90% of the supernatant was transferred to a glass tube and concentrated at 45° C. for 1.5 h using a vacuum concentrator. The dried sample was reconstituted in 400 μL of acetonitrile and water mixture (v/v=50/50) and vortexed for 20 s. The resulting mixture was transferred to an EP tube and centrifuged at 5,000 g for 15 min at 4° C. The supernatant was filtered through a 0.22 μm filter and analyzed by LC-MS/MS.
The brain sample (100 mg) was thawed, transferred to a homogenizer tube containing three zirconia beads, and homogenized. After processing as described for the serum samples, the supernatant was then filtered through a 0.22 μm filter, and analyzed by LC-MS/MS.

[3] = mouse, 20 mg/kg intraperitoneal

T1 sequence (P10275 whole entry): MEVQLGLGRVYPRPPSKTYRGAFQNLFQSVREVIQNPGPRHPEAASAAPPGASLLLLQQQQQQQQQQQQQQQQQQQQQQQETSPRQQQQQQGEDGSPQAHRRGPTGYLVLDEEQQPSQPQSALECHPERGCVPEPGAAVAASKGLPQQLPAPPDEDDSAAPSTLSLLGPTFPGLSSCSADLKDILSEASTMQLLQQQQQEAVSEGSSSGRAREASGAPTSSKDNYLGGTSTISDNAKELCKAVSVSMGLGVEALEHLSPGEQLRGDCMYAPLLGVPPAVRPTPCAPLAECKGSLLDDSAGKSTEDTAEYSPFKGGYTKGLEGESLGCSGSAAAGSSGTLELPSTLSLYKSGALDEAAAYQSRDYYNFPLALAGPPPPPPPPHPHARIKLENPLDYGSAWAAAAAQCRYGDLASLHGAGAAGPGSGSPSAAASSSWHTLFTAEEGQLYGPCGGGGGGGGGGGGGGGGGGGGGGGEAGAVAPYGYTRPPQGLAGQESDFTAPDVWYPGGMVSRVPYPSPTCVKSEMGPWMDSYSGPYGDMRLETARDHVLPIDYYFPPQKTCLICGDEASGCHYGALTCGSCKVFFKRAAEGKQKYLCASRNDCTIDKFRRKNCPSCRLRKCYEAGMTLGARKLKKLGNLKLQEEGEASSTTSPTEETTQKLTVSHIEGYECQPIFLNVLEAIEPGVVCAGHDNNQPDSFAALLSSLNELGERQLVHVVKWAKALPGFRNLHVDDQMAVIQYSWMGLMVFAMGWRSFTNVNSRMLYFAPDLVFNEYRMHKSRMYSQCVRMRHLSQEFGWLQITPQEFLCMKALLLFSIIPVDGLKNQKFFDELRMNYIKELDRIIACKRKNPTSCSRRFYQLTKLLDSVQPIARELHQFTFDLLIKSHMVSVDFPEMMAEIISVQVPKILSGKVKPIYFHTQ
Sequence of recombinant human androgen receptor (AR) protein (P10275 673-918): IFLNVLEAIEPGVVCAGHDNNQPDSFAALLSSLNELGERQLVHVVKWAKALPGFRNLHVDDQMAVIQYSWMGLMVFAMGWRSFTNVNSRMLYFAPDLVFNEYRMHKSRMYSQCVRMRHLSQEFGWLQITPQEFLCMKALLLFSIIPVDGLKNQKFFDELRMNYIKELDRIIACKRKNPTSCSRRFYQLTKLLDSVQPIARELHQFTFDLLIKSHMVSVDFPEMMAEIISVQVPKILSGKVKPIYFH

SMILES	blood-brain barrier permeability (in words) [2, 3]	metabolites detected after administration [2]	concentration of metabolites in serum and brain (in words) [2]	concentration of the compound in serum and brain (in words) ([2]; parent compound)	other results
C[C@](O)(COc1cc(C(F)(F)F)ncn1)C(=O)Nc1cnc(C#N)c(C(F)(F)F)c1 [Ex. 1, (S)-N-(6-cyano-5-(trifluoromethyl)pyridin-3-yl)-2-hydroxy-2-methyl-3-((6-(trifluoromethyl)pyrimidin-4-yl)oxy)propionamide]					Affinity KD [1]: No binding
C[C@](O)(COc1cc(C(F)(F)F)ncn1)C(=O)Nc1ccc(C#N)c(C(F)(F)F)c1 [Ex. 2, (S)-N-(4-cyano-3-(trifluoromethyl)phenyl)-2-hydroxy-2-methyl-3-((6-(trifluoromethyl)pyrimidin-4-yl)oxy)propionamide]					Affinity KD ([1]; Biacore T200, CM5 chip, human AR Ile673-His918 with N-terminal His Tag): No binding
C[C@](O)(COc1ccc(C#N)cc1)C(=O)Nc1cnc(C#N)c(C(F)(F)F)c1 [Ex. 3, (S)-N-(6-cyano-5-(trifluoromethyl)pyridin-3-yl)-3-(4-cyanophenoxy)-2-hydroxy-2-methylpropionamide]	good blood-brain barrier permeability				affinity to the androgen receptor proteins (in words) [1]: strong affinity; androgen receptor protein binding affinity and agonistic activity (in words) (androgen receptor): excellent androgen receptor protein binding affinity and agonistic activity; concentration detected in serum and brain (in words) ([2]; up to 72 h, 20 mg/kg intraperitoneal, parent compound): certain concentrations of the compound were detected in serum and brain up to 72 h after administration
C[C@](O)(COc1ccc(C#N)nc1)C(=O)Nc1ccc(C#N)c(C(F)(F)F)c1 [Ex. 4, (S)-N-(4-cyano-3-(trifluoromethyl)phenyl)-3-((6-cyanopyridin-3-yl)oxy)-2-hydroxy-2-methylpropionamide]					affinity to the androgen receptor proteins (in words) [1]: strong affinity
C[C@](O)(COc1ccc(C#N)nc1)C(=O)Nc1cnc(C#N)c(C(F)(F)F)c1 [Ex. 5, (S)-N-(6-cyano-5-(trifluoromethyl)pyridin-3-yl)-3-((6-cyanopyridin-3-yl)oxy)-2-hydroxy-2-methylpropionamide]					affinity to the androgen receptor proteins (in words) [1]: strong affinity; androgen receptor protein binding affinity and agonistic activity (in words) (androgen receptor): excellent androgen receptor protein binding affinity and agonistic activity
C[C@](O)(COc1ccc(C#N)c(F)c1)C(=O)Nc1cnc(C#N)c(C(F)(F)F)c1 [Ex. 8, (S)-3-(4-cyano-3-fluorophenoxy)-N-(6-cyano-5-(trifluoromethyl)pyridin-3-yl)-2-hydroxy-2-methylpropionamide]					concentration detected in serum and brain (in words) ([2]; mouse, in vivo, ip, 20 mg/kg): certain concentrations of the compound were detected in serum and brain up to 72 h after administration; blood-brain barrier permeability (in words) ([2]; mouse, not told, ip, 20 mg/kg): good blood-brain barrier permeability
C[C@@](COc1ccc(C#N)cc1)(OC(=O)c1cccnc1)C(=O)Nc1cnc(C#N)c(C(F)(F)F)c1 [Ex. 13, (S)-1-((6-cyano-5-(trifluoromethyl)pyridin-3-yl)amino)-3-(4-cyanophenoxy)-2-methyl-1-oxopropan-2-yl nicotinate]	certain blood-brain barrier permeability	detected	higher concentrations of metabolites	lower concentrations of the compound	
C[C@@](COc1ccc(C#N)cc1)(OC(=O)CCCC[C@@H]1CCSS1)C(=O)Nc1cnc(C#N)c(C(F)(F)F)c1 [Ex. 15, (S)-1-((6-cyano-5-(trifluoromethyl)pyridin-3-yl)amino)-3-(4-cyanophenoxy)-2-methyl-1-oxopropyl-2-yl 5-((R)-1,2-dithiolan-3-yl) pentanoate]					metabolism (in words) ([2]; mouse, in vivo): may undergo rapid metabolic processes in vivo
CC(C)C(=O)O[C@@](C)(COc1ccc(C#N)cc1)C(=O)Nc1cnc(C#N)c(C(F)(F)F)c1 [Ex. 21, (S)-1-((6-cyano-5-(trifluoromethyl)pyridin-3-yl)amino)-3-(4-cyanophenoxy)-2-methyl-1-oxopropan-2-yl isobutyrate]	certain blood-brain barrier permeability	detected	higher concentrations of metabolites	lower concentrations of the compound	
C[C@@](COc1ccc(C#N)cc1)(OC(=O)C1CCCC1)C(=O)Nc1cnc(C#N)c(C(F)(F)F)c1 [Ex. 22, (S)-1-((6-cyano-5-(trifluoromethyl)pyridin-3-yl)amino)-3-(4-cyanophenoxy)-2-methyl-1-oxopropan-2-yl cyclopentanecarboxylate]	certain blood-brain barrier permeability	detected	higher concentrations of metabolites	lower concentrations of the compound	Emax (androgen receptor): 2.3%
CC(=O)O[C@@](C)(COc1ccc(C#N)cc1)C(=O)Nc1cnc(C#N)c(C(F)(F)F)c1 [Ex. 24, (S)-1-((6-cyano-5-(trifluoromethyl)pyridin-3-yl)amino)-3-(4-cyanophenoxy)-2-methyl-1-oxopropan-2-yl acetate]		detected			bioavailability in the brain (in words) ([2]; compared with Example 3): significantly improved; metabolism (in words) ([2]; in vivo, mouse): partially metabolized to the compound of Example 3; total concentration of parent drug and metabolites in the brain (in words) ([2]; mouse, in vivo): significantly higher
C[C@@](COc1ccc(C#N)cc1)(OC(=O)c1ccccc1)C(=O)Nc1cnc(C#N)c(C(F)(F)F)c1 [Ex. 26, (S)-1-((6-cyano-5-(trifluoromethyl)pyridin-3-yl)amino)-3-(4-cyanophenoxy)-2-methyl-1-oxopropan-2-yl benzoate]	certain blood-brain barrier permeability	detected	higher concentrations of metabolites	lower concentrations of the compound	affinity to the androgen receptor proteins (in words) [1]: strong affinity
CCC(=O)O[C@@](C)(COc1ccc(C#N)cc1)C(=O)Nc1cnc(C#N)c(C(F)(F)F)c1 [Ex. 28, (S)-1-((6-cyano-5-(trifluoromethyl)pyridin-3-yl)amino)-3-(4-cyanophenoxy)-2-methyl-1-oxopropan-2-yl-propionate]	certain blood-brain barrier permeability	detected	higher concentrations of metabolites	lower concentrations of the compound	
C[C@@](COc1ccc(Cl)nc1)(OC(=O)c1cccnc1)C(=O)Nc1cnc(C#N)c(C(F)(F)F)c1 [Ex. 30, (S)-1-((6-cyano-5-(trifluoromethyl)pyridin-3-yl)amino)-3-((6-chloropyridin-3-yl)oxy)-2-methyl-1-oxopropan-2-yl nicotinate]					Emax (androgen receptor): 14.5%

— patent US20260294908A1, “NEUROACTIVE ANDROGEN RECEPTOR MODULATORS AND USE THEREOF” (priority 2023, published 2026)
